Laboratory results published in ChEMBL document CHEMBL1148392 (J Med Chem, 2004).

What was measured:
Oryctolagus cuniculus [1] = species: Oryctolagus cuniculus; conditions: dose 30 mg/kg
Description: Variation of intraocular pressure in fourth day at a dose of 30 mg/kg at a dose by systemic administration in hypertensive rabbits

Oryctolagus cuniculus [2] = species: Oryctolagus cuniculus; conditions: dose 30 mg/kg; remark: listed apart in the source
Description: Variation of intraocular pressure in seventh day at a dose of 30 mg/kg by systemic administration in hypertensive rabbits

Carbonic anhydrase 4 = molecular target: T1, Carbonic anhydrase 4 (Bos taurus, UniProt Q95323)
T1 sequence (Q95323 whole entry): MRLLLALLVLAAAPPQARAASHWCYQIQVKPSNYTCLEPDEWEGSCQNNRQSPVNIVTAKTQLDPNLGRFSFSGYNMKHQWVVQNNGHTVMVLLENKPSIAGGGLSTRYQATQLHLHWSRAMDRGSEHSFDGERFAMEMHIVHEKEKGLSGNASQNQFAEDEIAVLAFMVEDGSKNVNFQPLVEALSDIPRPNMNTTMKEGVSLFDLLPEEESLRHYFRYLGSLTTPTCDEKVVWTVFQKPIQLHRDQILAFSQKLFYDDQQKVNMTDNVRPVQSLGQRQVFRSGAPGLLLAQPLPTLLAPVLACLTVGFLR
Description: Inhibitory activity against bovine carbonic anhydrase IV was determined

Oryctolagus cuniculus [3] = test: Variation of intraocular pressure in fifth day at a dose of 30 mg/kg by systemic administration in hypertensive rabbits; type: functional, Eye
Carbonic anhydrase 9 = Carbonic anhydrase 9 (Homo sapiens, UniProt Q16790)
Description: Inhibitory activity against human carbonic anhydrase IX was determined

Oryctolagus cuniculus [4] = species: Oryctolagus cuniculus; conditions: dose 30 mg/kg; remark: listed apart in the source
Description: Variation of intraocular pressure in third day at a dose of 30 mg/kg by systemic administration in hypertensive rabbits

Carbonic anhydrase 1 = Carbonic anhydrase 1 (Homo sapiens, UniProt P00915)
Description: Inhibitory activity against human carbonic anhydrase I was determined

Oryctolagus cuniculus [5] = species: Oryctolagus cuniculus; conditions: dose 30 mg/kg; remark: listed apart in the source
Description: Variation of intraocular pressure in day one at a dose of 30 mg/kg by systemic administration in hypertensive rabbits

Oryctolagus cuniculus [6] = species: Oryctolagus cuniculus; conditions: dose 30 mg/kg; remark: listed apart in the source
Description: Variation of intraocular pressure in sixth day at a dose of 30 mg/kg by systemic administration in hypertensive rabbits

Carbonic anhydrase 2 = Carbonic anhydrase 2 (Homo sapiens, UniProt P00918)
Description: Inhibitory activity against human carbonic anhydrase II was determined

Oryctolagus cuniculus [7] = species: Oryctolagus cuniculus; conditions: dose 30 mg/kg; remark: listed apart in the source
Description: Variation of intraocular pressure in second day at a dose of 30 mg/kg by systemic administration in hypertensive rabbits

Carbonic anhydrase 1, sequence (P00915 whole entry): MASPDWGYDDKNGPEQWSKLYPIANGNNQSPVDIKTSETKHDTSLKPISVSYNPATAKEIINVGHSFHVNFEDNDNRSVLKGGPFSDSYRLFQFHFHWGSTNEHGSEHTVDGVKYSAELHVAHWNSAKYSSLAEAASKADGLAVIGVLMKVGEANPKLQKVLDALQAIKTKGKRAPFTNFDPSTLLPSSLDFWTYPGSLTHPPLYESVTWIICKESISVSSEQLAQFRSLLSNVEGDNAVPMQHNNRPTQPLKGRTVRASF

SMILES	Delta IOP (Oryctolagus cuniculus [1])	Delta IOP (Oryctolagus cuniculus [2])	IC50 (Carbonic anhydrase 4)	Delta IOP (Oryctolagus cuniculus [3])	IC50 (Carbonic anhydrase 9)	Delta IOP (Oryctolagus cuniculus [4])	IC50 (Carbonic anhydrase 1)	Delta IOP (Oryctolagus cuniculus [5])	Delta IOP (Oryctolagus cuniculus [6])	IC50 (Carbonic anhydrase 2)	Delta IOP (Oryctolagus cuniculus [7])
COc1ccc(-n2nc(C(F)(F)F)cc2-c2ccc(Cl)cc2)cc1 [SC-560]	0.34 mmHg	0.52 mmHg	> 100 µM	0.3 mmHg	> 100 µM	0.25 mmHg	> 100 µM	0.23 mmHg	0.41 mmHg	> 100 µM	0.017 mmHg
Cc1ccc(-c2cc(C(F)(F)F)nn2-c2ccc(S(N)(=O)=O)cc2)cc1 [CELECOXIB]					0.016 µM						
CS(=O)(=O)c1ccc(-n2cc(-c3ccc(F)cc3)c(C(F)(F)F)n2)cc1	0.25 mmHg	0.16 mmHg	> 100 µM	0.16 mmHg	> 100 µM	0.22 mmHg	> 100 µM	0.14 mmHg	0.34 mmHg	> 100 µM	0.31 mmHg
